In ChEMBL document CHEMBL4480396 (Eur J Med Chem, 2019):
Activity calls are given as the source filed them. The rule behind the calls is not given here.

Key:
PC-3 = experiment: Antiproliferative activity against human PC3 cells measured after 48 hrs by MTT assay; type: functional, cell-based; details: PC-3, 48 h
MGC-803 [1] = experiment: Antiproliferative activity against human MGC803 cells measured after 48 hrs by MTT assay; type: functional, cell-based; details: MGC-803, 48 h
HepG2 = experiment: Antiproliferative activity against human HepG2 cells measured after 48 hrs by MTT assay; type: functional, cell-based; details: HepG2, 48 h
MGC-803 [2] = experiment: Induction of apoptosis in human MGC803 cells after 48 hrs by Annexin V-FITC/propidium iodide staining based flow cytometry; type: functional, cell-based
MGC-803 [3] = experiment: Inhibition of colony formation in human MGC803 cells after 7 days by crystal violet staining based assay; type: functional, cell-based
MGC-803 [4] = experiment: Antiproliferative activity against human MGC803 cells assessed as cell viability at 30 nM measured after 7 days by crystal violet staining based assay relative to control; type: functional; details: MGC-803, 168 h, read-out: Activity
MGC-803 [5] = experiment: Antiproliferative activity against human MGC803 cells assessed as cell viability at 60 nM measured after 7 days by crystal violet staining based assay relative to control; type: functional; details: MGC-803, 168 h, read-out: Activity
MGC-803 [6] = experiment: Antiproliferative activity against human MGC803 cells assessed as cell viability at 90 nM measured after 7 days by crystal violet staining based assay relative to control; type: functional; details: MGC-803, 168 h, read-out: Activity
MGC-803 [7] = experiment: Antiproliferative activity against human MGC803 cells assessed as cell viability at 120 nM measured after 7 days by crystal violet staining based assay relative to control; type: functional; details: MGC-803, 168 h, read-out: Activity
MGC-803 [8] = experiment: Cell cycle arrest in human MGC803 cells assessed as decrease in accumulation at S-phase at 30 to 90 nM measured after 48 hrs by propidium iodide staining based flow cytometry; type: functional
MGC-803 [9] = experiment: Cell cycle arrest in human MGC803 cells assessed as decrease in accumulation at G1-phase at 30 to 90 nM measured after 48 hrs by propidium iodide staining based flow cytometry; type: functional
MGC-803 [10] = experiment: Cell cycle arrest in human MGC803 cells assessed as accumulation at G2/M-phase at 90 nM measured after 48 hrs by propidium iodide staining based flow cytometry relative to control; type: functional
MGC-803 [11] = experiment: Cell cycle arrest in human MGC803 cells assessed as accumulation at G2/M-phase measured after 48 hrs by propidium iodide staining based flow cytometry; type: functional
MGC-803 [12] = experiment: Down regulation of CDK1 expression in human MGC803 cells by Western blot analysis; type: functional, cell-based
[13] = biological target: Cyclin-dependent kinase 1 (Homo sapiens) (UniProt P06493); experiment: Effect on CDK1 phosphorylation at Tyr15 residues in human MGC803 cells at 30 to 90 nM by Western blot analysis; type: cell-based
Cyclin-dependent kinase 1 (Homo sapiens), sequence (P06493 whole entry, looked up): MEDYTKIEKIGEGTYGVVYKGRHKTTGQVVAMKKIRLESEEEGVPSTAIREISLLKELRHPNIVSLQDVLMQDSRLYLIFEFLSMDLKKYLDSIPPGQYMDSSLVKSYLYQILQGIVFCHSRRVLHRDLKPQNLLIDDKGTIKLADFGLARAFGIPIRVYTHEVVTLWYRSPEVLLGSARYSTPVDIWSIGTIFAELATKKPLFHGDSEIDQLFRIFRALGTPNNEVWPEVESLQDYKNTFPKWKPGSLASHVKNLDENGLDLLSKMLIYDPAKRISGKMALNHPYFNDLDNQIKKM

MGC-803 [14] = experiment: Up regulation of CDC25C expression in human MGC803 cells at 30 to 90 nM by Western blot analysis; type: functional, cell-based
MGC-803 [15] = experiment: Down regulation of CDK1 expression in human MGC803 cells at 30 to 90 nM in presence of proteasome inhibitor MG132 by Western blot analysis; type: functional, cell-based
[16] = biological target: T1, Cyclin-dependent kinase 1/cyclin B1 (Homo sapiens) (UniProt P06493+P14635); experiment: Effect on CDK1-cyclin B1 protein-protein interaction in human MGC803 cells assessed as change in cyclin B1 expression at 30 to 90 nM measured after 48 hrs by immunoprecipitation based Western blot analysis; type: cell-based
T1 sequence (P06493 whole entry, looked up): as above
T1 sequence (P14635 whole entry, looked up): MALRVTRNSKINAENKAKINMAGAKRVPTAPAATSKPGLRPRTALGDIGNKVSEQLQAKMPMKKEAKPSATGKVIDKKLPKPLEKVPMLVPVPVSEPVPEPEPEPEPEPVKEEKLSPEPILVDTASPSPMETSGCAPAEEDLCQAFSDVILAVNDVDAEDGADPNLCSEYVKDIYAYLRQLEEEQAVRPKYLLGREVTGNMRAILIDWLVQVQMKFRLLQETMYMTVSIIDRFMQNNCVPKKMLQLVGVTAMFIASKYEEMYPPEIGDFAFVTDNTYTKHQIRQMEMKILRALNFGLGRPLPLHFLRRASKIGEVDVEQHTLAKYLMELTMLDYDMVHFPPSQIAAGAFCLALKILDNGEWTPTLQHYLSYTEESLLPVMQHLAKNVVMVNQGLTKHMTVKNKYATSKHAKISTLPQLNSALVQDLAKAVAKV

[17] = biological target: T1, Cyclin-dependent kinase 1/cyclin B1 (Homo sapiens); experiment: Effect on CDK1-cyclin B1 protein-protein interaction in human MGC803 cells assessed as change in CDK1 expression at 30 to 90 nM measured after 48 hrs by immunoprecipitation based Western blot analysis; type: cell-based
MGC-803 [18] = experiment: Induction of apoptosis in human MGC803 cells assessed as viable cells at 30 nM after 48 hrs by Annexin V-FITC/propidium iodide staining based flow cytometry (reference value: 94.9%); type: functional; details: MGC-803, 48 h, read-out: Activity
MGC-803 [19] = experiment: Induction of apoptosis in human MGC803 cells assessed as early apoptotic cells at 30 nM after 48 hrs by Annexin V-FITC/propidium iodide staining based flow cytometry (reference value: 1.9%); type: functional
MGC-803 [20] = experiment: Induction of apoptosis in human MGC803 cells assessed as late apoptotic cells at 30 nM after 48 hrs by Annexin V-FITC/propidium iodide staining based flow cytometry (reference value: 2.9%); type: functional
MGC-803 [21] = experiment: Induction of apoptosis in human MGC803 cells assessed as necrotic cells at 30 nM after 48 hrs by Annexin V-FITC/propidium iodide staining based flow cytometry (reference value: 0.3%); type: functional
MGC-803 [22] = experiment: Induction of apoptosis in human MGC803 cells assessed as viable cells at 60 nM after 48 hrs by Annexin V-FITC/propidium iodide staining based flow cytometry (reference value: 94.9%); type: functional; details: MGC-803, 48 h, read-out: Activity
MGC-803 [23] = experiment: Induction of apoptosis in human MGC803 cells assessed as early apoptotic cells at 60 nM after 48 hrs by Annexin V-FITC/propidium iodide staining based flow cytometry (reference value: 1.9%); type: functional
MGC-803 [24] = experiment: Induction of apoptosis in human MGC803 cells assessed as late apoptotic cells at 60 nM after 48 hrs by Annexin V-FITC/propidium iodide staining based flow cytometry (reference value: 2.9%); type: functional
MGC-803 [25] = experiment: Induction of apoptosis in human MGC803 cells assessed as necrotic cells at 60 nM after 48 hrs by Annexin V-FITC/propidium iodide staining based flow cytometry (reference value: 0.3%); type: functional
MGC-803 [26] = experiment: Induction of apoptosis in human MGC803 cells assessed as viable cells at 90 nM after 48 hrs by Annexin V-FITC/propidium iodide staining based flow cytometry (reference value: 94.9%); type: functional; details: MGC-803, 48 h, read-out: Activity
MGC-803 [27] = experiment: Induction of apoptosis in human MGC803 cells assessed as early apoptotic cells at 90 nM after 48 hrs by Annexin V-FITC/propidium iodide staining based flow cytometry (reference value: 1.9%); type: functional
MGC-803 [28] = experiment: Induction of apoptosis in human MGC803 cells assessed as late apoptotic cells at 90 nM after 48 hrs by Annexin V-FITC/propidium iodide staining based flow cytometry (reference value: 2.9%); type: functional
MGC-803 [29] = experiment: Induction of apoptosis in human MGC803 cells assessed as necrotic cells at 90 nM after 48 hrs by Annexin V-FITC/propidium iodide staining based flow cytometry (reference value: 0.3%); type: functional
MGC-803 [30] = experiment: Induction of apoptosis in human MGC803 cells assessed as down regulation of Bcl-xl expression after 48 hrs by Western blot analysis; type: functional, cell-based
MGC-803 [31] = experiment: Induction of apoptosis in human MGC803 cells assessed as down regulation of XIAP expression after 48 hrs by Western blot analysis; type: functional, cell-based
MGC-803 [32] = experiment: Induction of apoptosis in human MGC803 cells assessed as up regulation of cleaved PARP expression at 30 to 90 nM after 48 hrs by Western blot analysis; type: functional, cell-based
MGC-803 [33] = experiment: Induction of apoptosis in human MGC803 cells assessed as up regulation of Bax expression at 30 to 90 nM after 48 hrs by Western blot analysis; type: functional, cell-based
MGC-803 [34] = experiment: Induction of apoptosis in human MGC803 cells assessed as up regulation of DR5 expression at 30 to 90 nM after 48 hrs by Western blot analysis; type: functional, cell-based
Tubulin = experiment: Inhibition of tubulin (unknown origin) polymerization measured every minute by spectrophotometric method; type: protein-complex assay, Homo sapiens
[35] = biological target: Tubulin beta (Homo sapiens) (UniProt P68371+Q9H4B7+Q13509+P04350+Q3ZCM7+P07437+Q13885+Q9BVA1+Q9BUF5+A6NNZ2); experiment: Inhibition of EBI binding to beta-tubulin colchicine binding site in human MGC803 cells at 0.4 to 4 uM preincubated for 2 hrs followed by EBI addition and measured after 2 hrs by Western blot analysis; type: cell-based
Tubulin (Homo sapiens) = Tubulin (Homo sapiens) (UniProt P68371+Q9H4B7+P0DPH7+P68366+Q13509+Q71U36+P04350+Q3ZCM7+P07437+P68363+Q9BQE3+Q6PEY2+Q13885+Q9BVA1+Q9BUF5); experiment: Induction of microtubule depolymerization in human MGC803 cells at 60 to 90 nM measured after 48 hrs by DAPI staining based laser confocal microscopic analysis; type: cell-based

## COc1ccc(CN(C(=O)Cn2cc(CSc3nc4ccccc4s3)nn2)c2cc(OC)c(OC)c(OC)c2)cc1
PC-3
  IC50: 28.4 µM
MGC-803 [1]
  IC50: 0.48 µM
HepG2
  IC50: 49.2 µM

## COc1ccc(CN(C(=O)Cn2cc(CNS(=O)(=O)c3ccc(Br)cc3)nn2)c2cc(OC)c(OC)c(OC)c2)cc1
PC-3
  IC50: 12.5 µM
MGC-803 [1]
  IC50: 0.43 µM
HepG2
  IC50: 7.37 µM

## C#CCOc1ccc2ccc(=O)oc2c1
PC-3
  IC50: > 80 µM
MGC-803 [1]
  IC50: > 80 µM
HepG2
  IC50: > 80 µM

## COc1ccc(CN(C(=O)Cn2cc(Cn3ccc4ccccc43)nn2)c2cc(OC)c(OC)c(OC)c2)cc1
PC-3
  IC50: 2.39 µM
MGC-803 [1]
  IC50: 42.6 µM
HepG2
  IC50: 40.1 µM

## COc1ccc(CN(C(=O)Cn2cc(CSc3nnc(-c4ccccc4)c(-c4ccccc4)n3)nn2)c2cc(OC)c(OC)c(OC)c2)cc1
PC-3
  IC50: 19.6 µM
MGC-803 [1]
  IC50: 1.52 µM
HepG2
  IC50: 21.8 µM

## COc1ccc(CN(C(=O)Cn2cc(CNS(=O)(=O)c3ccc(C)cc3)nn2)c2cc(OC)c(OC)c(OC)c2)cc1
PC-3
  IC50: 12.4 µM
MGC-803 [1]
  IC50: 1.58 µM
HepG2
  IC50: 30.5 µM

## COc1ccc(CN(C(=O)Cn2cc(CSc3nnnn3C)nn2)c2cc(OC)c(OC)c(OC)c2)cc1
PC-3
  IC50: 10.9 µM
MGC-803 [1]
  IC50: 6.57 µM
HepG2
  IC50: 28.3 µM

## COc1ccc(CN(C(=O)Cn2cc(COc3ccccc3)nn2)c2cc(OC)c(OC)c(OC)c2)cc1
PC-3
  IC50: 45.3 µM
MGC-803 [1]
  IC50: 12.5 µM
HepG2
  IC50: 20.5 µM

## COc1ccc(CN(C(=O)Cn2cc(COc3ccc4c(C)cc(=O)oc4c3)nn2)c2cc(OC)c(OC)c(OC)c2)cc1
MGC-803 [2]
  Activity: Dose-dependent effect
PC-3
  IC50: 0.34 µM
MGC-803 [1]
  IC50: 0.13 µM
HepG2
  IC50: 1.74 µM
MGC-803 [3]
  inhibition: Dose-dependent effect
MGC-803 [4]
  viability at 0.03 µM: 85.9%
MGC-803 [5]
  viability at 0.06 µM: 62.6%
MGC-803 [6]
  viability at 0.09 µM: 31.8%
MGC-803 [7]
  viability at 0.12 µM: 16%
MGC-803 [8]
  Activity: Active
MGC-803 [9]
  Activity: Active
MGC-803 [10]
  Activity: Active
MGC-803 [11]
  Activity: Dose-dependent effect
MGC-803 [12]
  Activity: Dose-dependent effect
[13]
  Activity: inactive
MGC-803 [14]
  Activity: inactive
MGC-803 [15]
  Activity: Active
[16]
  Activity: inactive
[17]
  Activity: inactive
MGC-803 [18]
  viability at 0.03 µM: 94.5%
MGC-803 [19]
  Activity: 2.1%
MGC-803 [20]
  Activity: 3.1%
MGC-803 [21]
  Activity: 0.2%
MGC-803 [22]
  viability at 0.06 µM: 92.1%
MGC-803 [23]
  Activity: 3.1%
MGC-803 [24]
  Activity: 4.5%
MGC-803 [25]
  Activity: 0.3%
MGC-803 [26]
  viability at 0.09 µM: 37.9%
MGC-803 [27]
  Activity: 25%
MGC-803 [28]
  Activity: 36.8%
MGC-803 [29]
  Activity: 0.4%
MGC-803 [30]
  Activity: Dose-dependent effect
MGC-803 [31]
  Activity: Dose-dependent effect
MGC-803 [32]
  Activity: Active
MGC-803 [33]
  Activity: Active
MGC-803 [34]
  Activity: Active
Tubulin
  IC50: 2.16 µM
[35]
  inhibition: Active
Tubulin (Homo sapiens)
  Activity: Active
